Data on eleven compounds can be found in US12421254B2, “KRAS modulators and uses thereof” (Quanta Therapeutics, Inc., priority 2023, dated 2025).

Each structure is given as a SMILES string.

In test [1] the test system is phospho-ERK in GP2D (KRAS-G12D) cells. Put plainly: pERK In Cell Western (ICW) assay (Method B), GP2D. It counts as cell-based. As to the method: pERK ICW is a high throughput screening assay to evaluate the cellular potency of mutant KRAS small molecule inhibitors. KRAS mutant cell lines AGS, GP2D (KRAS-G12D) as well as SW620 (KRAS-G12V) were purchased from ATCC and maintained respectively in RPMI/DMEM/RPMI medium supplemented with 10% fetal bovine serum.
Cells grown in exponential phase were trypsinized, resuspended in fresh media, and viable cells were counted using a cell counter with Trypan Blue (BioRad TC20). Cells were seeded into 384-well plate (Greiner 781091) at density of 5,000 cells/well for AGS and 10,000 cells/well for GP2D/SW620 and allowed to grow overnight in a 37° C. CO2 incubator. The next day, compounds were dispensed into wells with a ½ log, 9-point serial dilution using a Tecan D300e dispenser and incubated for 3 hours in a 37° C. CO2 incubator. Cells were then fixed with paraformaldehyde (Electron Microscopy Sciences, 15710, 4% final concentration) for 30 min, permeabilized with wash buffer (1×PBS+0.1% Triton X-100) for 30 min and blocked with Odyssey blocking buffer (Li—COR 927-70001) for 1 hour, all at room temperature (RT). Phospho-ERK antibody (CST 4370L) was diluted 1:500 in Odyssey T20 (PBS) antibody diluent (Li—COR 927-75001) and incubated with cells overnight at 4° C. The next day, plates were washed 5× with wash buffer, incubated with IRDye 800 CW, Goat anti-Rabbit secondary antibody (Li—COR 926-32211, 1:800) and DRAQ5 (CST 4084L, 1:5,000) diluted in Odyssey T20 (PBS) antibody diluent for 1 hour, washed 5×, and imaged on an Odyssey CLx imaging system.
For data analysis, signal intensities from 800 (phosphor-ERK) and 700 (DRAQ5) channels were extracted, and phospho-ERK signals were normalized to DRAQ5 signals for each well and percent of blank control values were computed. Data were then imported into Graphpad Prism to compute half-maximal inhibitory concentrations (IC50) using a 4-parameter variable slope model. Z-factor for each plate was computed from signals derived from wells treated with either DMSO or 5 μM of control compound. AGS pERK ICW (Method B) IC50 (uM) values of selected compounds are depicted in Table 2 with compounds having a value ≥0.001 uM to 0.01 uM as ++++; ≥0.01 uM to 0.1 uM as +++; ≥0.1 uM to 1 uM as ++; ≥1 uM to 10 uM as + and ≥10 uM as NA.

The target in test [2] is GST-tagged KRAS-G12V (2-169) (Homo sapiens, UniProt P01116, G12V). Description: Nucleotide exchange assay (NEA), SOS-mediated, HTRF, KRAS G12V. In kind it is biochemical. As to conditions: Table 4; IC50 extracted at 90 min; 80 nM SOS. The procedure, abridged: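 GST-KRAS-G12V (2-169), 0.25 nM, pre-incubated 1 h at RT with compound, then SOS1cat (564-1049) 80 nM and GTP-DY-647P1 150 nM added in HEPES pH 7.3 buffer with MgCl2 and DTT. HTRF via anti-GST Tb cryptate read over 90 min; IC50 from 4-parameter fit at 90 min, blanked to no-SOS reactions.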
In general terms: Time-resolved FRET reads energy transfer from a long-lived donor to a nearby acceptor.

The subject of test [3] is phospho-ERK in SW620 (KRAS-G12V) cells. Description: pERK In Cell Western (ICW) assay (Method B), SW620. It counts as cell-based. The procedure, abridged: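 SW620 (KRAS-G12V), GP2D (KRAS-G12D) and AGS cells, seeded overnight, were exposed to compounds (½-log, 9-point) for 3 h at 37°C, then fixed and stained for phospho-ERK. Infrared imaging; pERK normalized to DRAQ5 DNA stain, expressed as percent of blank control, IC50 by 4-parameter fit.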

The target of test [4] is GST-tagged KRAS-G12D (2-169) (Homo sapiens, UniProt P01116, G12D). Description: Nucleotide exchange assay (NEA), SOS-mediated, HTRF, KRAS G12D. The following applies: Table 4; IC50 extracted at 30 min; 20 nM SOScat; read-out: NEA G12D IC50. It counts as biochemical. The essentials: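 Compound preincubated 1 h at RT with 0.25 nM GST-KRAS-G12D (2-169) and anti-GST Tb donor, then 20 nM SOS1cat (564-1049) and 150 nM GTP-DY-647P1 added; pH 7.3 HEPES buffer with MgCl2 and DTT. HTRF monitored at RT; % inhibition versus DMSO and no-SOS blank, 4-parameter IC50 taken at 30 min.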

[5] abbreviates: Homo sapiens, SW-620, 3 h, Table 4.

GST-tagged KRAS-G12D (2-169), sequence (P01116 2-169 isoform P01116-2 G12D): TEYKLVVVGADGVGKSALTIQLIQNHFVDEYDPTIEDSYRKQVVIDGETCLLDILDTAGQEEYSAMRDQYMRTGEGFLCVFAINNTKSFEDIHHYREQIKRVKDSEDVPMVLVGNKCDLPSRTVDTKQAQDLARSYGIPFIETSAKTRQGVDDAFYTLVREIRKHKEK
GST-tagged KRAS-G12V (2-169), sequence (P01116 2-169 isoform P01116-2 G12V): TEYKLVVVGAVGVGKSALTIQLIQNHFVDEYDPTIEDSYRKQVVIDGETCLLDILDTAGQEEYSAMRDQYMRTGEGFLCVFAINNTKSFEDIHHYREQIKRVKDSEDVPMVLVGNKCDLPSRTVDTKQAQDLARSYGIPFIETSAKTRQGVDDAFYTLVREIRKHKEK

On to `CC(c1cccnc1N)N(C)c1nc(OC[C@@]23CCCN2C[C@H](F)C3)nc(N2CC3(C2)SCc2sc(N)c(C#N)c23)n1` (single isomer, unassigned) [Compound 120B, 2-amino-1′-[4-[[(1*)-1-(2-amino-3-pyridyl)ethyl]-methyl-amino]-6-[[(2R,8S)-2-fluoro-1,2,3,5,6,7-hexahydropyrrolizin-8-yl]methoxy]-1,3,5-triazin-2-yl]spiro[6H-thieno[3,4-b]thiophene-4,3′-azetidine]-3-carbonitrile], for which the IC50 in test [1] (Table 4, 3 hours) was 10 to 100 nM; in test [2], less than 10 nM; in test [3] (Table 4, 3 hours), 10 to 100 nM; in test [4], less than 10 nM.
Consider `CC(c1cccnc1N)N(CCO)c1nc(OC[C@@]23CCCN2C[C@H](F)C3)nc(N2CC3(CCc4sc(N)c(C#N)c43)C2)n1` (single isomer, unassigned) [Compound 122A, 2-amino-1′-[4-[[(1*)-1-(2-amino-3-pyridyl)ethyl]-(2-hydroxyethyl)amino]-6-[[(2R,8S)-2-fluoro-1,2,3,5,6,7-hexahydropyrrolizin-8-yl]methoxy]-1,3,5-triazin-2-yl]spiro[5,6-dihydrocyclopenta[b]thiophene-4,3′-azetidine]-3-carbonitrile], for which the IC50 was less than 10 nM in test [1] (GP2d, 3 h, Table 4); less than 10 nM in test [2]; 10 to 100 nM in test [3] (setting [5]); less than 10 nM in test [4].
With `CC(c1cccnc1N)N(CCO)c1nc(OC[C@@]23CCCN2C[C@H](F)C3)nc(N2CC3(CCc4sc(N)c(C#N)c43)C2)n1` (single isomer, unassigned) [Compound 122B, 2-amino-1′-[4-[[(1*)-1-(2-amino-3-pyridyl)ethyl]-(2-hydroxyethyl)amino]-6-[[(2R,8S)-2-fluoro-1,2,3,5,6,7-hexahydropyrrolizin-8-yl]methoxy]-1,3,5-triazin-2-yl]spiro[5,6-dihydrocyclopenta[b]thiophene-4,3′-azetidine]-3-carbonitrile], the 50% inhibitory concentration (IC50) in test [1] (Table 4, 3 hours) is 10 to 100 nM; in test [2], less than 10 nM; in test [3] (Table 4, 3 hours), 10 to 100 nM; in test [4], less than 10 nM.
As for `CCN(c1nc(OC[C@@]23CCCN2C[C@H](F)C3)nc(N2CC3(C2)SCc2sc(N)c(C#N)c23)n1)C(C)c1nccnc1N` (single isomer, unassigned) [Compound 168A, 2-amino-1′-[4-[[(1*)-1-(3-aminopyrazin-2-yl)ethyl]-ethyl-amino]-6-[[(2R,8S)-2-fluoro-1,2,3,5,6,7-hexahydropyrrolizin-8-yl]methoxy]-1,3,5-triazin-2-yl]spiro[6H-thieno[3,4-b]thiophene-4,3′-azetidine]-3-carbonitrile], the IC50 in test [1] (Table 4, 3 hours) was less than 10 nM; in test [2], less than 10 nM; in test [3] (setting [5]) it was less than 10 nM; in test [4], less than 10 nM.
As for `CCN(c1nc(OC[C@@]23CCCN2C[C@H](F)C3)nc(N2CC3(C2)SCc2sc(N)c(C#N)c23)n1)C(C)c1nccnc1N` (single isomer, unassigned) [Compound 168B, 2-amino-1′-[4-[[(1*)-1-(3-aminopyrazin-2-yl)ethyl]-ethyl-amino]-6-[[(2R,8S)-2-fluoro-1,2,3,5,6,7-hexahydropyrrolizin-8-yl]methoxy]-1,3,5-triazin-2-yl]spiro[6H-thieno[3,4-b]thiophene-4,3′-azetidine]-3-carbonitrile], the IC50 in test [1] (Table 4, 3 hours) was 100 to 1000 nM; in test [2] it was less than 10 nM; in test [3] (Table 4, 3 hours), 10 to 100 nM; in test [4], 10 to 100 nM.
Turning to `CC(c1nsnc1N)N(C)c1nc(OC[C@@]23CCCN2C[C@H](F)C3)nc(N2CC3(C2)SCc2sc(N)c(C#N)c23)n1` (single isomer, unassigned) [Compound 184A, 2-amino-1′-[4-[[(1*)-1-(4-amino-1,2,5-thiadiazol-3-yl)ethyl]-methyl-amino]-6-[[(2R,8S)-2-fluoro-1,2,3,5,6,7-hexahydropyrrolizin-8-yl]methoxy]-1,3,5-triazin-2-yl]spiro[6H-thieno[2,3-c]thiophene-4,3′-azetidine]-3-carbonitrile], the IC50 is 10 to 100 nM in test [1] (GP2d, 3 h, Table 4); less than 10 nM in test [2]; less than 10 nM in test [3] (setting [5]); less than 10 nM in test [4].
`N#Cc1c(N)sc2c1C1(CC2)CN(c2nc(OC[C@@]34CCCN3C[C@H](F)C4)nc(N3CCc4n[nH]c(N)c4C3)n2)C1` [Compound 35, 2-amino-1′-[4-(3-amino-2,4,6,7-tetrahydropyrazolo[4,3-c]pyridin-5-yl)-6-[[(2R,8S)-2-fluoro-1,2,3,5,6,7-hexahydropyrrolizin-8-yl]methoxy]-1,3,5-triazin-2-yl]spiro[5,6-dihydrocyclopenta[b]thiophene-4,3′-azetidine]-3-carbonitrile]: the IC50 is 1000 to 20000 nM in test [1] (GP2d, 3 h, Table 4); 1000 to 20000 nM in test [2]; no less than 20000 nM in test [3] (setting [5]); 100 to 1000 nM in test [4].
Turning to `N#Cc1c(N)sc2c1C1(CC2)CN(c2nc(OCC3(C#N)CC3)nc(OCC3(CN4CCOCC4)CC3)n2)C1` [Compound 38, 2-amino-1′-[4-[(1-cyanocyclopropyl)methoxy]-6-[[1-(morpholinomethyl)cyclopropyl]methoxy]-1,3,5-triazin-2-yl]spiro[5,6-dihydrocyclopenta[b]thiophene-4,3′-azetidine]-3-carbonitrile], the IC50 in test [1] (GP2d, 3 h, Table 4) is 1000 to 20000 nM; in test [2], less than 10 nM; in test [3] (setting [5]), 100 to 1000 nM; in test [4], 10 to 100 nM.
Turning to `N#Cc1c(N)sc2c1C1(CCC2)CN(c2nc(OC[C@@]34CCCN3C[C@H](F)C4)nc(N3CCCC(C#N)CC3)n2)C1` (stereo partly drawn) [Compound 39, 2-amino-1′-[4-(4-cyanoazepan-1-yl)-6-[[(2R,8S)-2-fluoro-1,2,3,5,6,7-hexahydropyrrolizin-8-yl]methoxy]-1,3,5-triazin-2-yl]spiro[6,7-dihydro-5H-benzothiophene-4,3′-azetidine]-3-carbonitrile], the IC50 was in the range of 1000 to 20000 nM in test [1] (GP2d, 3 h, Table 4); 10 to 100 nM in test [2]; 1000 to 20000 nM in test [3] (setting [5]); 10 to 100 nM in test [4].
On to `N#Cc1c(N)sc2c1C1(CC2)CN(c2nc(OC[C@@]34CCCN3C[C@H](F)C4)nc(N3CCCCC3C(N)=O)n2)C1` (stereo partly drawn) [Compound 40, 1-[4-(2-amino-3-cyano-spiro[5,6-dihydrocyclopenta[b]thiophene-4,3′-azetidine]-1′-yl)-6-[[(2R,8S)-2-fluoro-1,2,3,5,6,7-hexahydropyrrolizin-8-yl]methoxy]-1,3,5-triazin-2-yl]piperidine-2-carboxamide], for which the 50% inhibitory concentration (IC50) in test [1] (GP2d, 3 h, Table 4) was 1000 to 20000 nM; in test [2] it was 1000 to 20000 nM; in test [3] (setting [5]) it was no less than 20000 nM; in test [4], 100 to 1000 nM.
`N#CCC12CC1CCN(c1nc(OC[C@@]34CCCN3C[C@H](F)C4)nc(N3CC4(CCc5sc(N)c(C#N)c54)C3)n1)C2` (stereo partly drawn) [Compound 43, 2-amino-1′-[4-[1-(cyanomethyl)-3-azabicyclo[4.1.0]heptan-3-yl]-6-[[(2R,8S)-2-fluoro-1,2,3,5,6,7-hexahydropyrrolizin-8-yl]methoxy]-1,3,5-triazin-2-yl]spiro[5,6-dihydrocyclopenta[b]thiophene-4,3′-azetidine]-3-carbonitrile]: the IC50 in test [1] (GP2d, 3 h, Table 4) was 1000 to 20000 nM; in test [2], 10 to 100 nM; in test [3] (setting [5]), 1000 to 20000 nM; in test [4] it was 10 to 100 nM.

Broadly, the IC50 is the point on the concentration scale where inhibition reaches its midpoint.
